Assay results from EP0312076A1, “Use of oxoquinazoline derivatives in the treatment of hyperlipidemia” (BOEHRINGER INGELHEIM KG, priority 1987, dated 1989).

Experiments:
[1] = set-up: species or system Patienten; details: in vivo
Text: Gegenüber den bekannten Mitteln zur Behandlung der Hyperlipidämie haben die erfindungsgemäß verwendbaren Verbindungen, etwa die 11-Oxo-11-H pyrido-[2,1-b]-chinazolin-2-carbonsäure und ihre Salze, den Vorzug besserer Verträglichkeit.

Gesamtcholesterinspiegel = assay: Lowering of total cholesterol level in humans; assay type: in vivo; details: 600 mg pro Tag, beim Menschen
Protocol: Mit 600 mg pro Tag ließ sich z.B. bei Verwendung der 11-Oxo-11-H-pyrido[2,1-b]chinazolin-2-carbonsäure beim Menschen der Gesamtcholesterinspiegel um etwa 25 % senken.

Gesamtcholesterin = assay: Study in 8 healthy volunteers on a defined purine-rich diet: total cholesterol; assay type: in vivo, gesunde Probanden; details: nach 8 Tagen (nach Therapieende), 600 mg/Tag from day 4, n = 8, before therapy (4 days) 196 ± 70 mg/dl, before diet 201 ± 48 mg/dl
Protocol: In einer anderen Studie erhielten 8 gesunde Probanden eine definierte purinreiche Diät über die Prüfdauer von 8 Tagen. Nach 4 Tagen wurde mit der Verabreichung von 11-Oxo-11-H-pyrido[2,1-b]-chinazolin-2-carbonsäure (600 mg/Tag) begonnen.
Gesamtcholesterin (x); n = 8
Das Ergebnis bedeutet eine l8prozentige Senkung des Gesamtcholesterins.

Triglyceridspiegel = assay: Rat test: lowering of triglyceride level; assay type: in vivo; details: 100 mg/kg pro Tag (in zwei gleichen Gaben), normolipämische Ratten
Protocol: (§1) Im Versuch an Ratten wurde mit 100 mg/kg pro Tag (in zwei gleichen Gaben) eine deutliche Senkung des Triglyceridspiegels erreicht, z.B. 34% Senkung gegenüber der Kontrolle bei normolipämischen Ratten. Vorteilhafterweise wurde gleichzeitig der Harnsäurespiegel um 38 % gesenkt. Es läßt sich daher mit einer Substanz eine Therapie der Hyperlipidämie und der Hyperurikämie durchführen. Dadurch können unerwünschte Wechselwirkungen, wie sie bei der sonst nötigen Behandlung mit je einem Wirkstoff gegen die Hyperurikämie und gegen die Hyperlipidämie auftreten können, von vornherein vermieden werden.

Harnsäurespiegel = assay: Rat test: lowering of uric acid level; assay type: in vivo; details: 100 mg/kg pro Tag (in zwei gleichen Gaben), Ratten
Protocol: as §1

O=C(O)c1ccc2nc3ccccn3c(=O)c2c1 [11-Oxo-11-H-pyrido[2,1-b]chinazolin-2-carbonsäure]
präparatespezifische Nebenwirkungen [1]: keinerlei präparatespezifischen Nebenwirkungen | Senkung des Gesamtcholesterinspiegels (Gesamtcholesterinspiegel): ~25% | Gesamtcholesterin (x) (Gesamtcholesterin): 160 ± 48 mg/dL | Senkung des Triglyceridspiegels gegenüber der Kontrolle (Triglyceridspiegel): 34% | Senkung des Harnsäurespiegels (Harnsäurespiegel): 38%
